Test results taken from ChEMBL document CHEMBL3769367, “Orexin Receptor Antagonists: New Therapeutic Agents for the Treatment of Insomnia” (J Med Chem, 2016).

Key:
Rattus norvegicus = assay: Effect on sleep parameter in po dosed Wistar rat by EEG analysis; type: functional
[1] = Tmax in human at 1 to 1500 mg, po administered as single dose; type: ADME, organism-based; details: in vivo
[2] = Clearance in Wistar rat at 1 mg/kg, iv; type: ADME, organism-based; details: in vivo
[3] = Half life in Wistar rat at 1 mg/kg, iv; type: ADME, organism-based; details: in vivo
[4] = Oral bioavailability in Beagle dog at 3 mg/kg; type: ADME, organism-based, Canis lupus familiaris; details: in vivo
[5] = Half life in human plasma at 1 to 1500 mg, po administered as single dose; type: ADME, organism-based
Canis familiaris = assay: Effect on sleep parameter in po dosed Beagle dog by EEG analysis; type: functional, Canis lupus familiaris
[6] = Plasma protein binding in Wistar rat; type: ADME, cell-free; details: read-out: PPB (converted)
[7] = Oral bioavailability in Wistar rat at 10 mg/kg; type: ADME, organism-based; details: in vivo
[8] = Plasma protein binding in Beagle dog; type: ADME, cell-free, Canis lupus familiaris; details: read-out: PPB (converted)
[9] = Half life in Beagle dog 1 mg/kg, iv; type: ADME, organism-based, Canis lupus familiaris; details: in vivo
[10] = Ratio of drug level in brain to plasma in Wistar rat; type: ADME, cell-free; details: read-out: BPR
[11] = Clearance in Beagle dog 1 mg/kg, iv; type: ADME, organism-based, Canis lupus familiaris; details: in vivo
[12] = Plasma protein binding in human; type: ADME, cell-free; details: read-out: PPB (converted)

## COc1ccc(S(=O)(=O)N2CCC[C@H]2C(=O)Nc2cc(C)cc(C)c2)cc1 [ACT-462206]
Rattus norvegicus
  Activity: 100 mg/kg
[1]
  Tmax: 1.5 h
[2]
  clearance: 29 mL/min/kg
[3]
  half-life: 1.9 h
[4]
  bioavailability: 52%
[5]
  half-life: 10 h
Canis familiaris
  Activity: 100 mg/kg
[6]
  fraction unbound: 0.007
[7]
  bioavailability: 39%
[8]
  fraction unbound: 0.011
[9]
  half-life: 1.7 h
[10]
  Kp: 0.46
[11]
  clearance: 11 mL/min/kg
[12]
  fraction unbound: 0.007
